Experimental data: ChEMBL document CHEMBL3886628, “Substituted 3-(biphenyl-3-yl)-4-hydroxy-8-methoxy-1-azaspiro[4.5]dec-3-en-2-one” (2016)
Where “and” joins values, the source holds several entries; their conditions need not be identical. Equal values may be shown once.

Columns and labels:
[1] = molecular target: Acetyl-CoA carboxylase 2 (Homo sapiens, UniProt O00763)
[2] = molecular target: Acetyl-CoA carboxylase 1 (Homo sapiens, UniProt Q13085); test: Typical concentrations were in the range of 1.75 μl.

Acetyl-CoA carboxylase 2, sequence (O00763 whole entry): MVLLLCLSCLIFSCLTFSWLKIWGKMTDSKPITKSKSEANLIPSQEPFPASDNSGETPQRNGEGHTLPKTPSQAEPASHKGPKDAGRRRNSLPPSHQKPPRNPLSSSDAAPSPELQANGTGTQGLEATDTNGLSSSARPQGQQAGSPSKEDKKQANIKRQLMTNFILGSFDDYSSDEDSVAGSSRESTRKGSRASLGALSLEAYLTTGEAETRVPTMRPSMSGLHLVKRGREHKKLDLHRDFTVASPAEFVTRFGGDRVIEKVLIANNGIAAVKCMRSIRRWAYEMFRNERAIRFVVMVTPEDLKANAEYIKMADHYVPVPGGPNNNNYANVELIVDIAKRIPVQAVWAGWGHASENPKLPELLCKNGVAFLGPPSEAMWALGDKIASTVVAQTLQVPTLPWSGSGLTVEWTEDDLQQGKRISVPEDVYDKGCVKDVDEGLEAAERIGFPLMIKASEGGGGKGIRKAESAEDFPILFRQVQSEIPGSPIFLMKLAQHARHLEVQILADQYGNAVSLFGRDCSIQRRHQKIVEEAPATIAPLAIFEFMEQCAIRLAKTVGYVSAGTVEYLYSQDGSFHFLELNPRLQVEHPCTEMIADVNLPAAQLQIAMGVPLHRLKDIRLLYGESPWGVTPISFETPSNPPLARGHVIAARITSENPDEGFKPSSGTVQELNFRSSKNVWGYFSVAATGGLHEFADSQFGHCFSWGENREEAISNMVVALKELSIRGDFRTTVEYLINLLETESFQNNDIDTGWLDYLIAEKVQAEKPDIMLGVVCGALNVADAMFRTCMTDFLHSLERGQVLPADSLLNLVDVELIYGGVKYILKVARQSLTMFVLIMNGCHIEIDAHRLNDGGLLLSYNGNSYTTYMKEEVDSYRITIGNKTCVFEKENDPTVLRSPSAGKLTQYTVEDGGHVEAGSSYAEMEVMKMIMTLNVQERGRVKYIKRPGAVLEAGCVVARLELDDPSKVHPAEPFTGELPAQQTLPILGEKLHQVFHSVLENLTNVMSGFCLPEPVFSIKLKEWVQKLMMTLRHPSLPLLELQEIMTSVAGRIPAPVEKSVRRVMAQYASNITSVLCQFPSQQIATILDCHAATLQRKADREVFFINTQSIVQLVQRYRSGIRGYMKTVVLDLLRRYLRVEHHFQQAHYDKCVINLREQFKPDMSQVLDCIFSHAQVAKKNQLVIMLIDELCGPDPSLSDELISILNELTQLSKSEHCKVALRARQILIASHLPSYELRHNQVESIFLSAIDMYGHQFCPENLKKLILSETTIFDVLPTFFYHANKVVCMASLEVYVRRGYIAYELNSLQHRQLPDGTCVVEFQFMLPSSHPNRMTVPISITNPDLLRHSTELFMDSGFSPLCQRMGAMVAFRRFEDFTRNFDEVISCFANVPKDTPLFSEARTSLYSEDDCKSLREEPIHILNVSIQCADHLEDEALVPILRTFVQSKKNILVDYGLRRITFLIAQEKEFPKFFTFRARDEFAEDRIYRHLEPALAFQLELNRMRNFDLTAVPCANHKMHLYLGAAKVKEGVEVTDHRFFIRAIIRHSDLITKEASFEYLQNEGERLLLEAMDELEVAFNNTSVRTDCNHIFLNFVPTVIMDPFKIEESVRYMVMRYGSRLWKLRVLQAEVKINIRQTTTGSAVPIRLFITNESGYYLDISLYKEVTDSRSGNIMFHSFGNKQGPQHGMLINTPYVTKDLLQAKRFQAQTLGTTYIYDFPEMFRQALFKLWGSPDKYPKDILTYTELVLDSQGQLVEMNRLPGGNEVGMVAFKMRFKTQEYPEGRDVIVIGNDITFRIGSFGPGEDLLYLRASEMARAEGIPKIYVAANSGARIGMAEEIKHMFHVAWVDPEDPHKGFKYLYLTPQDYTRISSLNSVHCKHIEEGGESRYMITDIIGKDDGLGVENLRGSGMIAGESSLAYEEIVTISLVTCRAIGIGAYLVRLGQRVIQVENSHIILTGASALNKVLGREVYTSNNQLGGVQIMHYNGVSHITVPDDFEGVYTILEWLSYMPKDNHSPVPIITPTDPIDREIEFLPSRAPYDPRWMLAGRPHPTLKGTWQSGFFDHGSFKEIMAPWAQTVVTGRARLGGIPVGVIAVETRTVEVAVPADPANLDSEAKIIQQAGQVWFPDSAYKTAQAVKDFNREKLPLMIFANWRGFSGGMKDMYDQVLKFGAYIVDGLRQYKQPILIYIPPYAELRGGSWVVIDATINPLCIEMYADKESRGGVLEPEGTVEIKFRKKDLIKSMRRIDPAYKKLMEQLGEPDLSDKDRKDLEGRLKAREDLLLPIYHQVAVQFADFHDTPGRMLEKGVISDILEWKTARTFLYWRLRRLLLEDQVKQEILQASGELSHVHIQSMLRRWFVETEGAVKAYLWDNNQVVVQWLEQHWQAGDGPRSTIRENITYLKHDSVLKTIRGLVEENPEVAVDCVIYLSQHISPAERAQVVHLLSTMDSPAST

CO[C@]1(C(F)(F)F)CC[C@]2(CC1)NC(=O)C(c1cc(-c3ccc(Cl)c(F)c3)ccc1C)=C2O
IC50 [1]: 2760 nM and 1690 nM and 2010 nM | IC50 [2]: 92 nM and 119 nM

CO[C@]1(C(F)(F)F)CC[C@]2(CC1)NC(=O)C(c1cc(-c3ccc(Cl)cc3)ccc1C)=C2O
IC50 [2]: 231 nM and 244 nM and 44 nM and 67 nM and 78 nM and 162 nM and 186 nM and 99 nM

COC[C@]1(OC)CC[C@@]2(CC1)NC(=O)C(c1cc(-c3ccc(Cl)c(F)c3)ccc1C)=C2O
IC50 [2]: 104 nM and 133 nM and 84 nM
